Values joined by “and” are separate entries in the source; they are usually repeats but may differ in a detail not shown here. Identical values can stand only once.
How the values were obtained:
[1] = mn = molality of the nth substance listed, in mol/kg; conditions: 75 kPa, Liquid; for viscosity: Capillary tube (Ostwald / Ubbelohde) method; for speed of sound: Frequency=3 MHz, Single path-length method; for mass density: Vibrating tube method
[2] = 75 kPa, Liquid, Capillary tube (Ostwald / Ubbelohde) method

O [water] + NCCC(=O)O
[1], m2 = 0
Conditions	viscosity [mPa·s]
288.15 K	1.146
293.15 K	1.004
298.15 K	0.8929
303.15 K	0.7965
308.15 K	0.7187

O [water]
[2]
Conditions	viscosity
288.15 K	1.146 mPa·s
293.15 K	1.007 mPa·s and 1.004 mPa·s
298.15 K	0.893 mPa·s and 0.8929 mPa·s
303.15 K	0.797 mPa·s and 0.7965 mPa·s
308.15 K	0.719 mPa·s and 0.7187 mPa·s

O [water] + NCCCC(=O)O
[1], m2 = 0
Conditions	viscosity [mPa·s]
288.15 K	1.146
293.15 K	1.004
298.15 K	0.893
303.15 K	0.797
308.15 K	0.719

O [water] + NCC(=O)O
[1], m2 = 0
Conditions	viscosity [mPa·s]
288.15 K	1.146
293.15 K	1.007
298.15 K	0.893
303.15 K	0.797
308.15 K	0.719

O [water] + NCCCCCC(=O)O
[1], m2 = 0
Conditions	viscosity [mPa·s]
288.15 K	1.146
293.15 K	1.004
298.15 K	0.893
303.15 K	0.797
308.15 K	0.719

O [water] + NCCCCC(=O)O
[1], m2 = 0
Conditions	viscosity [mPa·s]
288.15 K	1.146
293.15 K	1.004
298.15 K	0.893
303.15 K	0.797
308.15 K	0.719

[Cl-].[Na+] [sodium chloride] + O
[1]
Conditions	mass density, m1 = 0.15	mass density, m1 = 0.25	speed of sound, m1 = 0.15	speed of sound, m1 = 0.25	viscosity, m1 = 0.15	viscosity, m1 = 0.25 [mPa·s]
288.15 K	1005.46 kg/m3 and 1005.45 kg/m3 and 1005.36 kg/m3	1009.51 kg/m3	1476.6 m/s and 1476.5 m/s	1483.6 m/s and 1483.4 m/s and 1483.3 m/s	1.156 mPa·s and 1.158 mPa·s	1.166
293.15 K	1004.48 kg/m3 [middle of 4 runs]	1008.5 kg/m3 and 1008.51 kg/m3	1492.3 m/s and 1492.2 m/s	–	1.016 mPa·s	1.025
298.15 K	1003.26 kg/m3 and 1003.27 kg/m3 and 1003.18 kg/m3	1007.26 kg/m3	1506.2 m/s and 1506 m/s and 1506.1 m/s	1512.5 m/s and 1512.3 m/s and 1512.2 m/s	0.905 mPa·s and 0.9049 mPa·s and 0.906 mPa·s	0.913
303.15 K	1001.83 kg/m3 [middle of 4 runs]	1005.78 kg/m3 and 1005.79 kg/m3	1518.2 m/s and 1518.1 m/s	1524.3 m/s and 1524.1 m/s and 1524 m/s	0.811 mPa·s [middle of 4 runs]	0.819
308.15 K	1000.11 kg/m3 [middle of 5 runs]	1004.12 kg/m3 and 1004.11 kg/m3	1528.7 m/s and 1528.6 m/s	1534.3 m/s [middle of 5 runs]	0.731 mPa·s and 0.7306 mPa·s and 0.732 mPa·s	0.739

— the NIST ThermoML archive (doi:10.1021/acs.jced.8b00236)
